In US20180148470A1, “CHOLIC ACID DERIVATIVE, AND PREPARATION METHOD AND MEDICAL USE THEREOF” (Jiangsu Hansoh Pharmaceutical Group Co., Ltd., priority 2015, published 2018):

What was measured:
FXR = target: T1, FXR (Homo sapiens, UniProt Q96RI1); assay: FXR reporter gene expression test (dual luciferase, FXR Gal4 reporter in HepG2 cells); assay type: cell-based; settings: HepG2 cells transiently transfected with FXR Gal4 reporter, 18 hours
T1 sequence (Q96RI1 262-486 limits assumed): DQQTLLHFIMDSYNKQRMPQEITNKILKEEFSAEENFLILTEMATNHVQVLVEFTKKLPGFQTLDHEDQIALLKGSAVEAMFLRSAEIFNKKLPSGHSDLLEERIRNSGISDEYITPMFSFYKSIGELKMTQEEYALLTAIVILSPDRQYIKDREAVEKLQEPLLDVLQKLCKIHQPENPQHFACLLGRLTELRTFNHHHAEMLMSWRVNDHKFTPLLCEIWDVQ
Excerpt: FXR Reporter Gene Expression Test
To analyze the effect of testing compounds on FXR-regulated gene expression, we used Promega's dual luciferase assay system (Promega #E1980) to detect the effect of the compounds on the FXR reporter gene in HepG2 hepatoma cell line (ATCC #HB-8065), which was transiently transfected with the FXR Gal4 reporter gene fragment. Specific experimental methods are as follows:
1. HepG2 Cell Culture and Maintenance
Cells were digested and cells with appropriate density were grown in 10 mL complete medium and then cultivated for 24 hours under 37° C., 5% CO2 humidity conditions.
2. Cell planting and transfection. Transfection reagent was Fugene HD (Promega#E231A)
(1) The transfection mixture was prepared according to the following table
(2) The mixture in the tube was vigorously mixed and incubated at room temperature for 15 minutes;
(3) The cells were digested in the culture dish and counted;
(4) The cell suspension was diluted to the desired volume of 600,000/mL (96-well plates 100 μL/well);
(5) The required volume of the transfection mixture was added to the cell suspension, followed by plating at 100 μL/well;
(6) Incubated for 24 hours under 37° C., 5% CO2 humidity conditions.
3. Treatment of the Compound
(1) 10 mM of mother liquor of the compound was prepared and then serially diluted 3 times with DMSO;
(2) 10 μL of compound was added to 90 μL of complete medium (10×);
(3) 5 μL of the solution of the compound (21×) was added to each well;
(4) Incubated for 18 hours under 37° C., 5% CO2 humidity conditions.
The firefly luciferase and the renilla luciferase signal (Promega #E1980) were detected by Promega's dual-luciferase assay system.
(2) Calculating the agonist rate
Agonist rate=(X−Min)/(Max−Min)*100% • X represents the F/R value of each concentration; • Min represents the F/R value without adding compound; • Max represents the F/R value of the reference compound.
(3) EC50 was calculated according to GraphPrism 5.0

FXR receptor = target: T2, FXR receptor (Homo sapiens, UniProt Q96RI1); assay: FXR receptor binding activity assay (TR-FRET; GST-FXR-LBD / SRC1 fragment); assay type: biochemical; settings: FXR-LBD binding to SRC1 fragment, agonist rate
T2 construct: Prepared 2× GST-labeled FXR-LBD/anti-GST Eu mixture to the required volume, the concentration of GST-FXR-LBD was 6 nM; purchased Life Technology Invitrogen PV4835
T2 sequence (Q96RI1 262-486 limits assumed): T1 sequence (Q96RI1 262-486 limits assumed)
T2 sequence (Q15788 676-700 partner limits assumed): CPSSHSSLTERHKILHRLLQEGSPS
Excerpt: FXR Receptor Binding Activity Assay (Time-Resolved Fluorescence Detection Method TR-FRET Method)
To test the effect of the present compounds on FXR receptor binding, we selected the commercial FXR receptor binding activity assay kit to test the effect of the compounds on FXR and its binding protein fragments (LBD structural domain binds to SRC1 fragment) (kit supplier: Life Technology Invitrogen Catalog: PV4835; cisbio Catalog: 610SAXLA and 61GSTKLA). Specific method was described in the kit instructions. The operation was as follows:
1. Prepared 2× GST-labeled FXR-LBD/anti-GST Eu mixture to the required volume, the concentration of GST-FXR-LBD was 6 nM, Eu was 50 nL/well.
2. Prepared 2× biotin-labeled SRC1/[…] (SA-APC) mixture to the required volume, the concentration of SRC1 was 1000 nM, and […] was 50 nL/well.
3. 2× GST-FXR/Eu and SRC1/SA-APC were mixed in a proportion of 1:1.
4. 20 μL of a mixture of GST-FXR/Eu and SRC1/SA-APC was added to a 384-well plate containing the compounds to be tested.
5. Centrifuged for 1 minute at 1000 rpm; incubated for 180 minutes at room temperature.
6. Time-resolved fluorescence detection: EnVision reader.
(1) the value at 665 nm divided by the value at 615 nm;
(2) calculating the agonist rate
Agonist rate=(X−Min)/(Max−Min)*100% • X represents the 665/615 value for each concentration; • Min represents the 665/615 value without adding compound; • Max represents the 665/615 value of the reference compound.

SMILES | EC50 (FXR) [nM] | EC50 (FXR receptor) [nM]
C[C@H](CC1SC(=O)NC1=O)C1CCC2C3C(CC[C@@]21C)[C@@]1(C)CC[C@@H](O)C[C@H]1C[C@H]3O (stereo partly drawn) [Example 15-α, 5-((2R)-2-((3R,5 S,7R,10S,13R)-3,7-dihydroxy-10,13-dimethylhexadecahydro-1H-cyclopenta[a]phenanthrene-17-yl)propyl)thiazolidine-2,4-dione] |  | 143
CC[C@H]1[C@@H](O)C2C3CCC([C@H](C)CCC(=O)NCCP(=O)(O)O)[C@@]3(C)CCC2[C@@]2(C)CC[C@@H](O)C[C@@H]12 (stereo partly drawn) [Example 7, (2-((4R)-4-((3R,5 S,6R,7R,10S,13R)-6-ethyl-3,7-dihydroxy-10,13-dimethylhexadecahydro-1H-cyclopenta[a]phenanthrene-17-yl)pentanoylamino)ethyl) phosphonic acid] |  | 552
CC[C@H]1[C@@H](O)C2C3CCC([C@H](C)CCc4nnc(C(=O)O)o4)[C@@]3(C)CCC2[C@@]2(C)CC[C@@H](O)C[C@@H]12 (stereo partly drawn) [Example 13, 5-((3R)-3-((3R, 5S, 6R, 7R, 10S,13R)-6-ethyl-3,7-dihydroxy-10,13-dimethylhexadecahydro-1H-cyclopenta[a]phenanthrene-17-yl)butyl) -1,3,4-oxadiazole-2-carboxylic acid] | 5200 | 283
CC[C@H]1[C@@H](O)C2C3CCC([C@H](C)CCC(=O)NOCCO)[C@@]3(C)CCC2[C@@]2(C)CC[C@@H](O)C[C@@H]12 (stereo partly drawn) [Example 8, (4R)-4-((3R, 5S, 6R, 7R, 10S, 13R)-6-ethyl-3,7-dihydroxy-10,13-dimethylhexadecahydro-1H-cyclopenta[a]phenanthrene-17-yl)-N-(2-hydroxyethoxy)pentanamide] | 3370 | 228
CC[C@@H]1[C@@H]2[C@@H](F)[C@H](O)CC[C@]2(C)C2CC[C@@]3(C)C(CCC3[C@H](C)CCC(=O)O)C2[C@@H]1O (stereo partly drawn) [Example 1, (4R)-4-((3R, 4R, 5S, 6R, 7R, 10R, 13R)-6-ethyl-4-fluoro-3,7-dihydroxy-10,13-dimethylhexadecahydro-1H-cyclopenta[a]phenanthrene-17-yl)pentanoic acid] | 2600 | 214
CC[C@H]1[C@@H](O)C2C3CCC([C@H](C)CCC(=O)NO)[C@@]3(C)CCC2[C@@]2(C)CC[C@@H](O)C[C@@H]12 (stereo partly drawn) [Example 2, (4R)-4-((3R,5S,6R,7R,10S,13R)-6-ethyl-3,7-dihydroxy-10,13-dimethylhexadecahydro-1H-cyclopenta[a]phenanthrene-17-yl)-N-hydroxypentanamide] | 3390 | 167
CC[C@H]1[C@@H](O)C2C3CCC([C@H](C)CCc4nnc[nH]4)[C@@]3(C)CCC2[C@@]2(C)CC[C@@H](O)C[C@@H]12 (stereo partly drawn) [Example 11, (3R,5S,6R,7R,10S,13R)-17-((R)-4-(4H-1,2,4-triazol-3-yl)butan-2-yl)-6-ethyl-10,13-dimethylhexadecahydro-1H-cyclopenta[a] phenanthrene-3,7-diphenol] | 5200 | 366
CC[C@H]1[C@@H](O)C2C3CCC([C@H](C)CCC(=O)NCP(=O)(O)O)[C@@]3(C)CCC2[C@@]2(C)CC[C@@H](O)C[C@@H]12 (stereo partly drawn) [Example 6, (((4R)-4-((3R,5S,6R,7R,10S,13R)-6-ethyl-3,7-dihydroxy-10,13-dimethylhexadecahydro-1H-cyclopenta[a]phenanthrene-17-yl)pentanoylamino)methyl)phosphonic acid] |  | 1270
CC[C@H]1[C@@H](O)C2C3CCC([C@H](C)CC4SC(=O)NC4=O)[C@@]3(C)CCC2[C@@]2(C)CC[C@@H](O)C[C@@H]12 (single isomer, unassigned) [Example 14-α] | 63 | 13
C[C@H](CC1SC(=O)NC1=O)C1CCC2C3C(CC[C@@]21C)[C@@]1(C)CC[C@@H](O)C[C@H]1C[C@H]3O (stereo partly drawn) [Example 15-β, 5-((2R)-2-((3R,5 S,7R,10S,13R)-3,7-dihydroxy-10,13-dimethylhexadecahydro-1H-cyclopenta[a]phenanthrene-17-yl)propyl)thiazolidine-2,4-dione] | 3370 | 312

More lines, now with the values ahead:

EC50 (FXR) [nM] | EC50 (FXR receptor) [nM] | SMILES
2530 | 16 | CC[C@H]1[C@@H](O)C2C3CCC([C@H](C)CCC(=O)NC#N)[C@@]3(C)CCC2[C@@]2(C)CC[C@@H](O)C[C@@H]12 (stereo partly drawn) [Example 3, (4R)-N-cyano-4-((3R, 5S, 6R, 7R, 10S, 13R)-6-ethyl-3,7-dihydroxy-10,13-dimethylhexadecahydro-1H-cyclopenta[a]phenanthrene-17-yl)pentanamide]
1400 | 61 | CC[C@H]1[C@@H](O)C2C3CCC([C@H](C)CCc4n[nH]c(=O)o4)[C@@]3(C)CCC2[C@@]2(C)CC[C@@H](O)C[C@@H]12 (stereo partly drawn) [Example 10, 5-((3R)-3-((3R,5S,6R,7R,10S,13R)-6-ethyl-3,7-dihydroxy-10,13-dimethylhexadecane-1H-cyclopenta[a]phenanthrene-17-yl)butyl)-1,3,4-oxadiazol-2 (3H) -one]
1060 | 54 | CC[C@H]1[C@@H](O)C2C3CCC([C@H](C)CCC(=O)NOC)[C@@]3(C)CCC2[C@@]2(C)CC[C@@H](O)C[C@@H]12 (stereo partly drawn) [Example 4, (4R)-4-((3R,5S,6R,7R,10S,13R)-6-ethyl-3,7-dihydroxy-10,13-dimethylhexadecahydro-1H-cyclopenta[a]phenanthrene-17-yl)-N-methoxypentanamide]
1360 | 52 | CC[C@H]1[C@@H](O)C2C3CCC([C@H](C)CCc4noc(=O)[nH]4)[C@@]3(C)CCC2[C@@]2(C)CC[C@@H](O)C[C@@H]12 (stereo partly drawn) [Example 12, 3-((3R)-3-((3R, 5S, 6R, 7R, 10S, 13R)-6-ethyl-3,7-dihydroxy-10,13-dimethylhexadecahydro-1H-cyclopenta[a]phenanthrene-17-yl)butyl)-1,2,4-oxadiazol-5(4H)-one]
 | 31 | CC[C@H]1[C@@H](O)C2C3CCC([C@H](C)CCC(=O)NCS(=O)(=O)O)[C@@]3(C)CCC2[C@@]2(C)CC[C@@H](O)C[C@@H]12 (stereo partly drawn) [Example 5, ((4R)-4-((3R,5S,6R,7R,10S,13R)-6-ethyl-3,7-dihydroxy-10,13-dimethylhexadecahydro-1H-cyclopenta[a]phenanthrene-17-yl)pentanoylamino) methanesulfonic acid]
 | 70 | CCOC(=O)c1nnc(CC[C@@H](C)C2CCC3C4C(CC[C@@]32C)[C@@]2(C)CC[C@@H](O)C[C@H]2[C@@H](CC)[C@H]4O)o1 (stereo partly drawn) [Example 13-ii]
